Assay results from patent US9216999B2, “Substituted pyrrolo[2,3-h][1,6]naphthyridines and compositions thereof as JAK inhibitors” (priority 2011, dated 2015).
Like-named read-outs stand apart in the source and are kept apart here.

Legend:
Format in all cases: biochemical
[1] = target: JAK2 (Homo sapiens (Human), UniProt O60674); assay: Enzyme assay (Assay Example^a 1), JAK2
[2] = target: Tyk2 (Homo sapiens (Human), UniProt P29597); assay: Enzyme assay (Assay Example^a 1), Tyk2; conditions: ATP 100 μM
[3] = target: JAK3 (Homo sapiens (Human), UniProt P52333); assay: Enzyme assay (Assay Example^a 1), JAK3
[4] = target: JAK1 (Homo sapiens (Human), UniProt P23458); assay: Enzyme assay (Assay Example^a 1), JAK1; conditions: ATP 100 μM

Chain of Tyk2 (P29597 whole entry): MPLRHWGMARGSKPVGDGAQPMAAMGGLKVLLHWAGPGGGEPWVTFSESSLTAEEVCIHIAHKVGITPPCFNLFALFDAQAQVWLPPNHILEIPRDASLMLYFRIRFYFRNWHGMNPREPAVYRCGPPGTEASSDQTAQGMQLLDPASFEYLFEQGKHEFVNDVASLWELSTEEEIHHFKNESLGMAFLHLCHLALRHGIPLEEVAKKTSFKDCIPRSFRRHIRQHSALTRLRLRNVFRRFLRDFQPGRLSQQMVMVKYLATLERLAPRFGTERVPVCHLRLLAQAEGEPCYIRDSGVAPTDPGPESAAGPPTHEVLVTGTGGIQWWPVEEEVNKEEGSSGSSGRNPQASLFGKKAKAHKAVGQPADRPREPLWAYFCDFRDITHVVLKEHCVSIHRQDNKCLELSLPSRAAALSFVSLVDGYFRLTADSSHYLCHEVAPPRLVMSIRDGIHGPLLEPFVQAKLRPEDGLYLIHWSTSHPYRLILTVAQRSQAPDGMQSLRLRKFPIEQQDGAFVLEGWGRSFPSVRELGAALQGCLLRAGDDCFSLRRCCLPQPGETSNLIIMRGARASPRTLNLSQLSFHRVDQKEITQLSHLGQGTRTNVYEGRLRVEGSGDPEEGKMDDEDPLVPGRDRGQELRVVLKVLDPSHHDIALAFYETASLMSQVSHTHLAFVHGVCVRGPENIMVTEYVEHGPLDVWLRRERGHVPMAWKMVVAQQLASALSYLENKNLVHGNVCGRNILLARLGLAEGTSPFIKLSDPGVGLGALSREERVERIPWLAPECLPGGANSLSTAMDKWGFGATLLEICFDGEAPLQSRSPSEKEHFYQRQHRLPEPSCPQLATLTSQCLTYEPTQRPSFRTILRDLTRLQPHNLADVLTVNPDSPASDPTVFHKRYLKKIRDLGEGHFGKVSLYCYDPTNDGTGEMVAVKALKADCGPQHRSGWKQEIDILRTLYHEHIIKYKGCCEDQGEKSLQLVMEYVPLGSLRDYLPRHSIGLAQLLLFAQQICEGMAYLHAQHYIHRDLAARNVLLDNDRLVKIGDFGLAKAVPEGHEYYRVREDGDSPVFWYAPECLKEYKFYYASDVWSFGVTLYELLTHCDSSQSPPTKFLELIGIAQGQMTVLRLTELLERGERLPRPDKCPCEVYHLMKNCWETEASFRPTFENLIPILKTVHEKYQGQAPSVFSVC
Chain of JAK3 (P52333 whole entry): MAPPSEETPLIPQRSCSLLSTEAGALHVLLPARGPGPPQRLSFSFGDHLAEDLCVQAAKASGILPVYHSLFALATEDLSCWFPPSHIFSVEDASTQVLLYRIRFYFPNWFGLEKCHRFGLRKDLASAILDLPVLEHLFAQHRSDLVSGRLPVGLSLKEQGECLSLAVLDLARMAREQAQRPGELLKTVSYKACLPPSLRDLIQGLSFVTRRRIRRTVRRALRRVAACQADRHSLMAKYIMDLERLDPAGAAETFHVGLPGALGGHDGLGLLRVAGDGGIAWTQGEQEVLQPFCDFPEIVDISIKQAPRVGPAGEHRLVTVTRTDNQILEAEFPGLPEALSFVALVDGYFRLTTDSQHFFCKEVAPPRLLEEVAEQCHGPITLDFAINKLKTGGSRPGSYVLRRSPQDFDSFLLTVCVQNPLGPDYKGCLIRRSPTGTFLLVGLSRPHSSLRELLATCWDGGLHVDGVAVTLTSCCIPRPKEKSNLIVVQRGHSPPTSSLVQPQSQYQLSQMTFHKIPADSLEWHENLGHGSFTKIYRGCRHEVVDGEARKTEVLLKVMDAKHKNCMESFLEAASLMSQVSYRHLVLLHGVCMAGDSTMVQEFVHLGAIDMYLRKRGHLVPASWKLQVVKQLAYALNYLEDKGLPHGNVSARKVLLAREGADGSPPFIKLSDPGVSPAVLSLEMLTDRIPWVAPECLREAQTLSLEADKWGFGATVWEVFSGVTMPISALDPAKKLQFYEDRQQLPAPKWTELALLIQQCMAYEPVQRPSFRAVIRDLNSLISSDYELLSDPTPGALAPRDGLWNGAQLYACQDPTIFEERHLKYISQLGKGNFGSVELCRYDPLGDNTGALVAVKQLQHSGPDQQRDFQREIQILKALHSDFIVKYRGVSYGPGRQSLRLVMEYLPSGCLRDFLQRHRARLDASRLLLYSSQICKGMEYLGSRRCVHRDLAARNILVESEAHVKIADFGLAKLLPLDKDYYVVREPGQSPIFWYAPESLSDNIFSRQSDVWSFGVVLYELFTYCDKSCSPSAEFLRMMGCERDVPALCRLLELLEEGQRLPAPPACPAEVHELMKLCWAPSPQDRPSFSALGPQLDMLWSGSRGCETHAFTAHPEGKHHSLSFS

| IC50 [2] [µM] | IC50 ([3]; ATP 100 μM) [µM] | Structure (SMILES) | IC50 ([2]; Table^a 154) [µM] | IC50 [4] [µM] | other results |
| --- | --- | --- | --- | --- | --- |
| – | – | c1cc2c(ncn3nnc(C4CCNCC4)c23)[nH]1 [compound 27] | – | – | IC50 [1]: > 1 µM |
| – | – | CC(C)(C)OC(=O)N1CCC(c2nnn3cnc4[nH]ccc4c23)CC1 [compound 24] | – | – | IC50 [1]: 0.51 µM |
| 0.067 | 0.17 | N#CC(C#N)C[C@H]1CC[C@H](c2nnn3cnc4[nH]ccc4c23)CC1 [compound 432, 2-{[trans-4-(7H-Pyrrolo[3,2-e][1,2,3]triazolo[1,5-c]pyrimidin-1-yl)cyclohexyl]methyl}malononitrile] | – | – | IC50 ([1]; ATP 100 μM): 0.0088 µM |
| – | – | Cc1cc(OC(F)(F)F)ccc1NC[C@H]1CC[C@H](c2nnn3cnc4[nH]ccc4c23)CC1 [compound 104] | > 1 | – | IC50 ([3]; ATP 100 μM, Table^a 154): > 1 µM; IC50 ([1]; ATP 100 μM, Table^a 154): > 1 µM |
| – | – | CC1CCN(C(=O)OC(C)(C)C)CC1c1nnn2cnc3[nH]ccc3c12 (centres unmarked) [compound 11] | – | – | IC50 ([1]; ATP 100 μM, Table^a 154): 0.34 µM |
| – | – | FC(F)(F)c1ccc(CN2CCC(c3nnn4cnc5[nH]ccc5c34)CC2)cc1 [compound 33] | – | – | IC50 [1]: 0.019 µM |
| – | – | OC(CN1CCC(c2nnn3cnc4[nH]ccc4c23)CC1)c1ccc(C(F)(F)F)cc1 (racemic) [compound 212, 2-[4-(7H-Pyrrolo[3,2-e][1,2,3]triazolo[1,5-c]pyrimidin-1-yl)piperidin-1-yl]-1-[4-(trifluoromethyl)phenyl]ethanol] | 0.45 | – | IC50 ([1]; ATP 100 μM, Table^a 154): 0.047 µM |
| 0.43 | 0.2 | Fc1ccc(C2(NC[C@H]3CC[C@H](c4nnn5cnc6[nH]ccc6c45)CC3)COC2)cc1 [compound 322, N-{[trans-4-(7H-pyrrolo[3,2-e][1,2,3]triazolo[1,5-c]pyrimidin-1-yl)cyclohexyl]methyl}-3-(4-fluorophenyl)oxetan-3-amine] | – | 0.0013 | – |
| – | – | CN(C)S(=O)(=O)c1ccc2c(c1)CCN2C[C@H]1CC[C@H](c2nnn3cnc4[nH]ccc4c23)CC1 [compound 190, 1-{[trans-4-(7H-pyrrolo[3,2-e][1,2,3]triazolo[1,5-c]pyrimidin-1-yl)cyclohexyl]methyl}-N,N-dimethylindoline-5-sulfonamide] | 0.61 | – | IC50 ([3]; ATP 100 μM, Table^a 154): > 1 µM; IC50 ([4]; Table^a 154): 0.022 µM |
| 0.024 | 0.12 | N#CCC[C@H]1CC[C@H](c2nnn3cnc4[nH]ccc4c23)CC1 [compound 441, 3-[trans-4-(7H-Pyrrolo[3,2-e][1,2,3]triazolo[1,5-c]pyrimidin-1-yl)cyclohexyl]propanenitrile] | – | 0.0016 | – |
| – | – | c1cc2c(ncn3nnc(C4CCCNC4)c23)[nH]1 (racemic) [compound 15] | > 1 | – | IC50 ([1]; ATP 100 μM, Table^a 154): 2.5 µM |
| 0.62 | > 1 | FC(F)(F)CN(CC1CC1)[C@H]1CC[C@H](c2nnn3cnc4[nH]ccc4c23)CC1 [compound 413, trans-N-(Cyclopropylmethyl)-4-(7H-pyrrolo[3,2-e][1,2,3]triazolo[1,5-c]pyrimidin-1-yl)-N-(2,2,2-trifluoroethyl)cyclohexanamine] | – | 0.02 | – |
| – | – | Cc1cc(OC(F)(F)F)ccc1NC1CCC(c2nnn3cnc4[nH]ccc4c23)CC1 (centres unmarked) [compound 133] | > 1 | – | IC50 [3]: > 1 µM; IC50 ([4]; Table^a 154): 0.12 µM |

| Structure (SMILES) | IC50 [2] [µM] | IC50 ([3]; ATP 100 μM) [µM] | IC50 ([2]; Table^a 154) [µM] | IC50 [4] [µM] | other results |
| --- | --- | --- | --- | --- | --- |
| O=C(NCC(O)(c1ccc(F)cc1)C(F)(F)F)[C@H]1CC[C@H](c2nnn3cnc4[nH]ccc4c23)CC1 (stereo partly drawn) [compound 347, trans-4-(7H-Pyrrolo[3,2-e][1,2,3]triazolo[1,5-c]pyrimidin-1-yl)-N-[3,3,3-trifluoro-2-(4-fluorophenyl)-2-hydroxypropyl]cyclohexanecarboxamide] | > 1 | 0.65 | – | 0.0069 | – |
| N#Cc1ccc(CCN2CCC(c3nnn4cnc5[nH]ccc5c34)CC2)cc1 [compound 375, 4-{2-[4-(7H-Pyrrolo[3,2-e][1,2,3]triazolo[1,5-c]pyrimidin-1-yl)piperidin-1-yl]ethyl}benzonitrile] | > 1 | > 1 | – | 0.047 | – |
| NC(=O)c1ccc(CN2CCC(c3nnn4cnc5[nH]ccc5c34)CC2)cc1 [compound 241, 4-{[4-(7H-pyrrolo[3,2-e][1,2,3]triazolo[1,5-c]pyrimidin-1-yl)piperidin-1-yl]methyl}benzamide] | > 1 | > 1 | – | 0.046 | – |
